Measurements from patent publication US8519136B2, “Aminopyridine derivatives having aurora a selective inhibitory action” (MSD K.K., priority 2008, dated 2013).
Counter-ions that a name gives are not always drawn.

What was measured:
[1] = target: T1, GST-tagged human Aurora B(AurB)/His-tagged human INCENP complex proteins (Homo sapiens, UniProt Q96GD4); assay: Aurora B inhibitory activity (Method A, IMAP kit); type: biochemical; settings: 40 μM ATP, 25° C., 45 minutes
T1 construct: GST; purchased Carna Biosciences, Inc
T1 sequence (Q96GD4 whole entry): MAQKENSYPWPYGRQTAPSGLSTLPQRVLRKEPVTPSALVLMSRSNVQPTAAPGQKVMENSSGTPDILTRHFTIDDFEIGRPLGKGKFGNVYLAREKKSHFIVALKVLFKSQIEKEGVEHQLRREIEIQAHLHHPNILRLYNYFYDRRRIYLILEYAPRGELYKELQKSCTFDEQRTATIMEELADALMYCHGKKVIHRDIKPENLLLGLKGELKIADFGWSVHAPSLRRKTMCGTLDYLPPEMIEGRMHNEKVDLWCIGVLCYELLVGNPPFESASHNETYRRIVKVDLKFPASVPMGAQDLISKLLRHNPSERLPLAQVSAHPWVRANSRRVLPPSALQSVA
T1 sequence (Q9NQS7 803-916 partner limits assumed): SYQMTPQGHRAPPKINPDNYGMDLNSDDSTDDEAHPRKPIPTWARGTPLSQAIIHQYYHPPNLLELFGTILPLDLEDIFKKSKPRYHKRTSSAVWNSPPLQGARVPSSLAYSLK
Procedure: An assay development kit for IMAP (registered trademark) (Aurora B), purchased from Carna Biosciences, Inc., was used for phosphorylation reaction, and the phosphorylation of a substrate was detected using the IMAP technology. The assay development kit used is comprised of an assay buffer, GST-tagged human Aurora B(AurB)/His-tagged human INCENP complex proteins (amino acid sequence: 803-916, AAU04398.1), and an ATP/substrate solution. Using the same, the phosphorylation reaction was conducted in accordance with a partially revised protocol attached to the kit, and then the phosphorylation of the substrate was detected using the IMAP technology.
For the phosphorylation reaction, 384 well plate was used, and the reaction volume was 10 μl/well. The composition of the reaction buffer (assay buffer) is comprised of 20 mM of HEPES buffer (pH 7.4), 0.01% Tween-20, and 2 mM of dithiothreitol (DTT). Thereto, AurB/INCENP complex protein, 100 nM of the substrate, and 40 μM of ATP, and 1 mM of magnesium salt were added, and then the reaction was conducted at 25° C. for 45 minutes. Thereafter, in order to terminate and detect the reaction, 30 μl of the IMAP (registered trademark) binding reagent (IMAP Progressive Binding Reagent, R7284) that had been diluted (1:400) in the 1×IMAP binding buffer A (IMAP Progressive Binding Buffer A, 5× stock, R7282) was added to each well. The solution stood still for 60 minutes in the dark, and then fluorescence polarization was measured using a high-end microplate reader (excitation wavelength: 485 nm; emission wavelength: 520 nm).
The compound to be tested was added to the reaction system such that a dilution series of the compound in DMSO was prepared, and then 0.5 μL of this solution was added for the testing to each well. Each control well was provided by adding 0.5 μL of DMSO to the well in place of the DMSO solution containing the compound to be tested.

[2] = system: Human cervical cancer cells (HeLa S3); assay: Cell growth inhibitory effect, WST-8 method; type: cell-based; settings: 72 h, HeLa S3, three days incubation, read-out: Cell growth inhibitory effect (HeLaS3) (IC50)
Procedure: Fetal calf serum (FCS) was purchased from Moregate Biotech, and DMEM medium was purchased from Invitrogen Corp. WST-8 was purchased from Kishida Chemical Co., Ltd.
Human cervical cancer cells (HeLa S3) were obtained from the American Type Culture Collection (ATCC).
Cells were suspended in a DMEM medium containing 10% FCS, and the cell suspension was dispensed to a 96-well plastic plate at a rate of 750 cells/100 microliters per well. The plate was incubated overnight in 5% CO2-95% air at 37° C. A drug was subjected to graded dilution in dimethylsulfoxide and further diluted with a DMEM medium containing 10% FCS. Then, the dilution was dispensed to the plate on which cells had been disseminated, at a rate of 100 microliters per well. The plate was incubated for further three days in 5% CO2-95% air at 37° C. Cell growth after incubation was measured by the WST-8 method (H. Tominaga, et al., Anal. Commun., 36, 47-50 (1999)). Here, the WST-8 method refers to a method in which 20 microliters of a WST-8 reagent solution is added to each well, incubation is conducted at 37° C. for 60 minutes, the plate is stirred, and the amount of formazan produced is measured by a colorimetric method to determine the inhibitory rate of the drug. The concentration for 50% growth inhibition (IC50, μM) of the compound was determined.

| IC50 [1] [nM] | IC50 [2] [nM] | Compound |
| --- | --- | --- |
| 369 | 780 | Cl.O=C(c1cccc(Cl)c1F)N1CCC(O)(Cc2cccc(Nc3cc[nH]n3)n2)CC1 [Example 2, 1-(3-chloro-2-fluorobenzoyl)-4-((6-(1H-pyrazol-3-ylamino)pyridin-2-yl)methyl)piperidin-4-ol hydrochloride] |
| > 1000 | 1730 | O=c1[nH]nc(C2(Cc3cccc(Nc4cc[nH]n4)n3)CCN(S(=O)(=O)c3ccccc3C(F)(F)F)CC2)o1 [Example 14, 5-(4-((6-(1H-pyrazol-3-ylamino)pyridin-2-yl)methyl)-1-((2-(trifluoromethyl)phenyl)sulfonyl)piperidin-4-yl)-1,3,4-oxadiazol-2(3H)-one trifluoroacetate] |

| Compound | IC50 [1] [nM] | IC50 [2] [nM] |
| --- | --- | --- |
| O=c1[nH]nc(C2(Cc3cccc(Nc4cc[nH]n4)n3)CCN(C(c3cccc(C(F)(F)F)c3)C(F)(F)F)CC2)o1 (stereo not drawn) [Example 19, 5-(4-((6-(1H-pyrazol-3-ylamino)pyridin-2-yl)methyl)-1-(2,2,2-trifluoro-1-(3-(trifluoromethyl)phenyl)ethyl)piperidin-4-yl)-1,3,4-oxadiazol-2(3H)-one trifluoroacetate] | > 1000 | 1010 |
